PubChem BioAssay AID1189 (EPA DSSTox, 2008)
Calls of active or inactive are those of the source.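 How the source made its calls: active means a tumor-causing dose value with its tumor site reported for any sex and species group of a rodent or other animal cancer study; inconclusive means only studies judged inadequate by the national testing program; inactive means tested in at least one study, none positive.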

test: DSSTox (CPDBAS) Carcinogenic Potency Database Summary SingleCellCall Results; settings: animal chronic carcinogenicity bioassays, CPDB summary call
Method in brief: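 Categorical carcinogenicity call compiled from published chronic rodent and other animal cancer bioassays; based on the most positive result across experiments for each sex-species, assigned on minimal evidence for or against activity.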

Compound	outcome
NS(=O)(=O)c1cc2c(cc1Cl)NCNS2(=O)=O	inactive; active
CC(=O)CN(N=O)C(N)=O	active
Cc1cccn2c1nc1ccc(N)nc12	active
CC(=O)CN(CCO)N=O	active
COc1ccccc1[N+](=O)[O-]	active
CCNc1nc(Cl)nc(NC(C)C)n1	active
O=C1Nc2ccc(Cl)cc2C(c2ccccc2)=NC1O (stereo unspecified)	active
O=C(O)c1ccncc1	inactive
C[C@@H]1O[C@@H](OC[C@H]2O[C@@H](Oc3c(-c4ccc(O)c(O)c4)oc4cc(O)cc(O)c4c3=O)[C@H](O)[C@@H](O)[C@@H]2O)[C@H](O)[C@H](O)[C@H]1O	inactive
Nc1ccc(N)c(Cl)c1	inactive
CN(C)N=Nc1ccccc1	active
NC(=O)CI	inactive; active
O=[N+]([O-])c1ccc(NCCO)c(OCCO)c1	inactive
CC1=CC(=O)NS(=O)(=O)O1	inactive
O=[N+]([O-])O	inactive; active
COc1ccc2c(c1)c(CC(=O)O)c(C)n2C(=O)c1ccc(Cl)cc1	active; inactive
CCN(N)C=O	active
CCBr	active
F[B-](F)(F)F	inactive
CCSC[C@H](N)C(=O)O	inactive
CC1SC(C)N(N=O)C(C)S1 (stereo unspecified)	active
C1N2CN3CN1CN(C2)C3	inactive; active

Compound	outcome
CC(=O)Nc1ccc(N=Nc2cc(C)ccc2O)cc1	active; inactive
CN(N=O)c1ccc([N+](=O)[O-])cc1	inactive
CC(C)C=O	inactive
O=NN(c1ccccc1)c1ccccc1	active; inactive
CCOC(=O)C(C)(C)Oc1ccc(Cl)cc1	active
c1ccc2c(c1)[nH]c1cnccc12	inactive
C[C@@H]1CCC[C@H](C)N1CCCC(O)(c1ccccc1)c1ccccn1 (stereo partly specified)	inactive; active
CNCCc1ccc(OC(=O)C(C)C)c(OC(=O)C(C)C)c1	inactive
CCC[N+](=O)[O-]	inactive
O=C(O)CC(O)(CC(=O)O)C(=O)O	inactive
CBr	inactive; active
O=NN1CCCC1c1ccc[n+]([O-])c1 (stereo unspecified)	active; inactive
CC1=CC(=O)CC(C)(C)C1	active
Oc1cc2c(cc1O)[C@H]1c3ccc(O)c(O)c3OC[C@@]1(O)C2	active
CN(N=O)C(=O)c1ccccc1	active; inactive
OO	active; inactive
O=NN(CCO)CCO	active; inactive
CCCCOCCO	active
C=Cc1ccccc1	active
OCCO	inactive
CCn1cc(C(=O)O)c(=O)c2ccc(C)nc21	active
ClCCCl	active

Compound	outcome
CCCCCN(N=O)C(N)=O	active
CC[C@H](C)[C@H]1O[C@]2(CC[C@@H]1C)C[C@@H]1C[C@@H](C/C=C(\C)[C@@H](O[C@H]3C[C@H](OC)[C@@H](O[C@H]4C[C@H](OC)[C@@H](O)[C@H](C)O4)[C@H](C)O3)[C@@H](C)/C=C/C=C3\CO[C@@H]4[C@H](O)C(C)=C[C@@H](C(=O)O1)[C@]34O)O2	inactive
Cc1c(N)nc(C)c2c1[nH]c1ccccc12	active
CC(=O)[O][Hg][c]1ccccc1	inactive
CC(Oc1cc(Cl)c(Cl)cc1Cl)C(=O)O (stereo unspecified)	inactive
O=C1OC(O)C(C(Cl)Cl)=C1Cl (stereo unspecified)	active
CCOP(=S)(OCC)Oc1nc(Cl)c(Cl)cc1Cl	inactive
CC(C)(CCCOc1ccc(OCCCC(C)(C)C(=O)O)c(-c2ccccc2)c1)C(=O)O	active
CC(=O)NCc1nc(-c2ccc([N+](=O)[O-])o2)no1	active
S=C(SSSSSSC(=S)N1CCCCC1)N1CCCCC1	inactive
CCC[CH2][Sn]([CH2]CCC)([O]C(C)=O)[O]C(C)=O	inactive
O=NN1CCCCCCC1	active
CC(=O)Nc1ccc(S(=O)(=O)c2ccc(NC(C)=O)cc2)cc1	active; inactive
Cc1cc(Cl)ccc1OCC(=O)O	inactive
Nc1ccc(-c2ccc(N)c(N)c2)cc1N	active
CCn1cc(C(=O)O)c(=O)c2cc3c(cc21)OCO3	active
COC1[C@@H](O[C@@H]2O[C@H](C)[C@@H](O[C@H]3C[C@@](C)(O)[C@H](OC(=O)CC(C)C)[C@H](C)O3)[C@H](N(C)C)[C@H]2O)[C@@H](CC=O)C[C@@H](C)[C@@H](O)/C=C/C=C/C[C@@H](C)OC(=O)C[C@H]1OC(C)=O (stereo partly specified)	inactive; active
O=[N+]([O-])c1ccc2nc[nH]c2c1	active
CCCCNC(N)=O	inactive
CC(=O)Oc1c(C)c(C)c2c(c1C)CCC(C)(CCCC(C)CCCC(C)CCCC(C)C)O2 (stereo unspecified)	inactive
CCn1c2ccccc2c2cc(N)ccc21	active
C=C(C)[C@H]1CC=C(C)C(=O)C1	inactive; active
